T1: DHX36-AAA (Bos taurus, UniProt Q05B79, K192A/K193A/K194A)
T1 sequence (Q05B79 55-1010 K192A/K193A/K194A): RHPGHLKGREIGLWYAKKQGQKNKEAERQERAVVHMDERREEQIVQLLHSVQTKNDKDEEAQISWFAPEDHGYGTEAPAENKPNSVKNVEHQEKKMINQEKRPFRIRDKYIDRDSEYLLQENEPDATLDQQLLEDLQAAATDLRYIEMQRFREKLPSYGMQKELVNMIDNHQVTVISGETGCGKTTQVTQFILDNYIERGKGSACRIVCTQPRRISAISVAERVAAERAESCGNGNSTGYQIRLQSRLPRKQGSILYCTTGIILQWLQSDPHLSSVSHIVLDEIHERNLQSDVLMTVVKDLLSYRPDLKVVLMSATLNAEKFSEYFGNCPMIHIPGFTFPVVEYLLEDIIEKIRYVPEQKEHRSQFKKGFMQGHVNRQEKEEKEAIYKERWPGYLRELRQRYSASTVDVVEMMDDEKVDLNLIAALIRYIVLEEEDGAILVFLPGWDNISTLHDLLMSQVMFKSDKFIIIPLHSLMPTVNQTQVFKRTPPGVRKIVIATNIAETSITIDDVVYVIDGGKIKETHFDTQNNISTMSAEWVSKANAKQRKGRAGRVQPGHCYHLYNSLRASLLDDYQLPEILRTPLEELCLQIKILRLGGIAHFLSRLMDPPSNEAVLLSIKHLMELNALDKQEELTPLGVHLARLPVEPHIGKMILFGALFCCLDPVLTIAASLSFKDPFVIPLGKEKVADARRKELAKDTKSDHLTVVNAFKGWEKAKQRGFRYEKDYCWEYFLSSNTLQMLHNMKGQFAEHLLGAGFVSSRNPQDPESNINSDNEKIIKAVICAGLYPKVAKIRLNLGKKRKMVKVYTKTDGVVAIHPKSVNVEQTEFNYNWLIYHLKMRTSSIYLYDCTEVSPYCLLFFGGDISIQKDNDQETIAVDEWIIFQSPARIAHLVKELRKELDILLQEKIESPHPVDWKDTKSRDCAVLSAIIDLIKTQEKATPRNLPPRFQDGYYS

T2: DHX36-DSM (crystallization construct) (Bos taurus, UniProt Q05B79 55-1010, E435Y;E436Y;K437Y;K752A;D753A;K755A;del1-54;del111-159)
T2 sequence: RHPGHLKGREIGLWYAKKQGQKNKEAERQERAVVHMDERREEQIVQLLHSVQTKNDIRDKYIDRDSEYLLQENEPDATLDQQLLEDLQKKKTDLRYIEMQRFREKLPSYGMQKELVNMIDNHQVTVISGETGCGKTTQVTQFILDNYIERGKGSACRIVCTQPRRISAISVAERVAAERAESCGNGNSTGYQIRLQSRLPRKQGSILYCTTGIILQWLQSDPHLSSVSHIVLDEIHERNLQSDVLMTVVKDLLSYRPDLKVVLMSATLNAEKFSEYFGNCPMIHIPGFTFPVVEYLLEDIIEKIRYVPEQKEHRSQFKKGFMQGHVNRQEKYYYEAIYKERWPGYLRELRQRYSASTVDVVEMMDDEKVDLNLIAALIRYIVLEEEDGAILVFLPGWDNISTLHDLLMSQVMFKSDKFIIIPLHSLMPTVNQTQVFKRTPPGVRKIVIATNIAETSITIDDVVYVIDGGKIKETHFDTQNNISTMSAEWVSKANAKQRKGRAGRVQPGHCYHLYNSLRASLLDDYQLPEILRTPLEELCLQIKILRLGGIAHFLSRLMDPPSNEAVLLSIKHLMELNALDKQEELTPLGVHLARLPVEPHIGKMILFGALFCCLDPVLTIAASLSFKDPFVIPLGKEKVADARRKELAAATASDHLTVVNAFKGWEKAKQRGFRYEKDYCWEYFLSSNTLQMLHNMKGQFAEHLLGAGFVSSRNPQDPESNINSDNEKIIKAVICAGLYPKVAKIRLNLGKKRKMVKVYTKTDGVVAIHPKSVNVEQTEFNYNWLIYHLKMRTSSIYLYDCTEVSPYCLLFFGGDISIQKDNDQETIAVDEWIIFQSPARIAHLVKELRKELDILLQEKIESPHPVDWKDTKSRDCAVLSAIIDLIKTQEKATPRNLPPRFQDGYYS


Columns and labels:
DHX36-AAA = biological target: T1, DHX36-AAA; assay: single-molecule FRET, helicase dissociation from G-quadruplex DNA; format: biochemical; details: ATP added to DHX36-AAA bound to c-Myc G-quadruplex DNA with 3' T9 tail
[1] = biological target: T2, DHX36-DSM (crystallization construct); assay: X-ray crystallography

| Molecule | single-molecule FRET, helicase dissociation from G-quadruplex DNA (DHX36-AAA) | binding result [1] |
| --- | --- | --- |
| Nc1ncnc2c1ncn2[C@@H]1O[C@H](COP(=O)(O)OP(=O)(O)OP(=O)(O)O)[C@@H](O)[C@H]1O [ATP] | Addition of ATP (red arrow) while DHX36-AAA is displaying repetitive unfolding activity |  |
| AGGGTGGGTAGGGTGGGTTTTTTT (structured_DNA) [DNAMyc] |  | binds |

Source: PMC6261253 (Nature, 2018)
